# Laboratory results: patent US20260083864A1, “CONTRAST AGENTS FOR USE IN DIAGNOSTIC COMPUTED TOMOGRAPHY IMAGING” (Bayer Aktiengesellschaft, priority 2022, published 2026)
# Assays:
# [1] = Relaxivity measurements at 1.41 T in water; assay type: physicochemical; conditions: 37° C., normalized to Gd
# Procedure, shortened: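 T1 by inversion recovery and T2 by CPMG at 1.41 T (60 MHz), 37° C, relaxation delay ≥5×T1. Three Gd concentrations between 0.05 and 2 mM; relaxivities derived from measured relaxation rates in water.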
# [2] = test system: freshly isolated rat hepatocytes; assay: Uptake into freshly isolated rat hepatocytes; conditions: for Uptake rat hepatocytes: 100 μmol Gd/L, 10 min, 37° C., relative to RC1 (Gd-EOB-DTPA); for Inhibition Rifampicine: rat hepatocyte uptake, test item and Rifampicine 1:1, each 100 μM
# [3] = test system: cryopreserved human hepatocytes; assay: In vitro metabolism in cryopreserved human hepatocytes; assay type: in vitro ADME; conditions: 5 μM, incubation time of 4 h, LC-MS
# Protocol: (§1) The in vitro metabolism was investigated in cryopreserved human and rat hepatocytes (Li A P et al. Biomark Med. 2014; 8 (2): 173-83). Cryopreserved human (WSS) and rat hepatocytes (Wistar rat, RWH137, male) were incubated with the test compound (incubation concentration: 5 μM). The amount of remaining compound was related to the initial amount (0 mins). The cells were removed from the liquid nitrogen. The vial was immersed in the 37° C. water bath and shaken gently (by hand) until most of the ice was melted (approx. 90 sec.). The cell suspensions were transferred e.g. into a 50 ml-centrifuge tube and 12 ml of 4° C.-cold buffer (e.g. Krebs-Henseleit or Williams Medium E) were added. The cell suspension was centrifuged at 50×g for 5 mins. The buffer was aspirated, and the cells resuspended in 5 ml of fresh warm buffer. An aliquot of 50 μl was mixed with 200 μl trypan blue to determine the cell density and cell viability. The cell suspension was adjusted to a final concentration of 0.8 Mio hepatocytes per mL. The incubations were performed in 96 well plates (1.2 ml volume, negative control without cells). The 0 min samples were stopped immediately by adding 250 μl of ice-cold methanol. All other samples are shaken on an Heidolph®-rotor during incubation in a 37° C. incubator for the indicated period of 4 hours. Aliquots of the samples were used for analysis. All samples were analyzed using LC-MS at 0 h, 1 h, 2 h and 4 h (exemplary LC-MS: Accucore C-18 column, 30° C., 0.35 mL/min flow rate, solvent A: 10 mM Ammonium formate+5% MeCN, pH4 and solvent B: MeCN+0.1% formic acid; […] injection volume, gradient: 90% A, 10% B, 5 min 70% A and 30% B, 8 min 0% A and 100% B).
# [4] = Water solubility in aqueous buffer; conditions: aqueous buffer 10 mM Tris-HCl, pH 7.4, 20° C.
# Protocol: The solid compounds were added stepwise to the buffer solution. More substance is added once all the suspended material is dissolved until an equilibrium between undissolved and dissolved substance is reached. The suspension was mixed using a shaker (Heidolph Reax 2000) and treated 5 min in an ultrasound bath (Bandelin, Sonorex Super RK255H).
# plasma proteins [5] = assay: Plasma protein binding, equilibrium dialysis, rat; assay type: in vitro ADME
# Excerpt: (§2) The binding of Example 1 and 15 to plasma proteins of different species (human, dog, monkey, rabbit, mouse and rat) was investigated in vitro by using equilibrium dialysis in reusable 96-well Micro-Equilibrium Dialysis Devices (ht dialysis) (Banker M J et al. J Pharm Sci. 2003 May; 92 (5): 967-74).
# [6] = test system: cryopreserved rat hepatocytes; assay: In vitro metabolism in cryopreserved rat hepatocytes; assay type: in vitro ADME; conditions: 5 μM, incubation time of 4 h, LC-MS
# Protocol: as §1
# OATP1B3 = molecular target: T1, OATP1B3 (Homo sapiens, UniProt Q9NPD5); assay: Uptake into stable transfected OATP1B3 HEK 293 cells; assay type: cell-based; conditions: for Uptake into OATP1B3-HEK 293 cells: 40 min incubation, relative to RC1 (Gd-EOB-DTPA); for Inhibition Rifampicine: uptake into OATP1B3-HEK 293 cells
# T1 sequence (Q9NPD5 1-702): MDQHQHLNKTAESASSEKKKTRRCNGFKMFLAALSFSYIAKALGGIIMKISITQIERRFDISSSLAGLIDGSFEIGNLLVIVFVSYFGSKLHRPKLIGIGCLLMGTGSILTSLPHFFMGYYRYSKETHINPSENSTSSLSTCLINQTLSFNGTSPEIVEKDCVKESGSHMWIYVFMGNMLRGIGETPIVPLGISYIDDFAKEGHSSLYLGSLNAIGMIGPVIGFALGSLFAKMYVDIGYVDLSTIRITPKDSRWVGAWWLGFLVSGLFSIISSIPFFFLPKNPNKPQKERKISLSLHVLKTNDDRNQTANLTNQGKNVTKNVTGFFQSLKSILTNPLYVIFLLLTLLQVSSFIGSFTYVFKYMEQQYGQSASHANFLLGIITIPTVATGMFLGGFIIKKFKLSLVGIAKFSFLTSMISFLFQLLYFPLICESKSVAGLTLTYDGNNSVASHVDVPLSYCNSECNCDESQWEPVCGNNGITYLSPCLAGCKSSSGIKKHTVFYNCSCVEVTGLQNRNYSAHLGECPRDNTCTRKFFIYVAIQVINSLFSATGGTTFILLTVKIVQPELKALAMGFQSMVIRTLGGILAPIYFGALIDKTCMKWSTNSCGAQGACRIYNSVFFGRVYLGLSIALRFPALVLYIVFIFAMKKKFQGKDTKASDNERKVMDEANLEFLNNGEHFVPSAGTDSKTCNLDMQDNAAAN
# Procedure, shortened: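 HEK 293 cells stably transfected with human OATP1B3 were incubated for 40 min with test items at 100 μM final in transport buffer, in triplicate, then washed with cold PBS. Gadoxetate (Gd-EOB-DTPA) served as the reference standard on the same plate.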
# plasma proteins [7] = assay: Plasma protein binding, equilibrium dialysis, human; assay type: in vitro ADME
# Excerpt: as §2
Structure (SMILES),r1 water [1],Uptake rat hepatocytes [2],Inhibition Rifampicine [2],Metabolites detected [3],Solubility [4],Fraction unbound fu (plasma proteins [5]),Metabolites detected [6],Uptake into OATP1B3-HEK 293 cells (OATP1B3),Inhibition Rifampicine (OATP1B3),Fraction unbound fu (plasma proteins [7])
"CCOc1ccc(CCOCC(C(=O)O)N2CCN(CC(=O)[O-])CCN(CC(=O)[O-])CCN(CC(=O)[O-])CC2)cc1.[Gd+3] (stereo not shown) [Example 1, gadolinium 2,2′,2″-(10-{1-carboxy-2-[2-(4-ethoxyphenyl)ethoxy]ethyl}-1,4,7,10-tetraazacyclododecane-1,4,7-triyl)triacetate]",4.1 L/mmol/s,29 % of RC1,93 % inhibition,No metabolites were detected,>258 mM,92%,No metabolites were detected,24 % of RC1,97 % inhibition,99%
"CCOCCOCCOc1ccc(CC(C(=O)O)N2CCN(CC(=O)[O-])CCN(CC(=O)[O-])CCN(CC(=O)[O-])CC2)cc1.[Gd+3] (stereo not shown) [Example 2, gadolinium 2,2′,2″-{10-[1-carboxy-2-{4-[2-(2-ethoxyethoxy)ethoxy]phenyl}ethyl]-1,4,7,10-tetraazacyclododecane-1,4,7-triyl}triacetate]",4.4 L/mmol/s,52 % of RC1,85 % inhibition,No metabolites were detected,>757 mM,>95%,No metabolites were detected,56 % of RC1,80 % inhibition,>95%
"CCOCCOCCOc1ccc(CCC[C@@H](C(=O)O)N2CCN([C@@H](CO)C(=O)[O-])CCN([C@@H](CO)C(=O)[O-])CCN([C@@H](CO)C(=O)[O-])CC2)cc1.[Gd+3] [Example 15, gadolinium (2S,2′S,2″S)-2,2′,2″-{10-[(1S)-1-carboxy-4-{4-[2-(2-ethoxyethoxy)ethoxy]phenyl}butyl]-1,4,7,10-tetraazacyclododecane-1,4,7-triyl}tris(3-hydroxypropanoate)]",5.1 L/mmol/s,109 % of RC1,94 % inhibition,No metabolites were detected,>500 mM,71%,No metabolites were detected,–,98 % inhibition,86%
"CCOc1ccc(CC(CN(CCN(CC(=O)[O-])CC(=O)[O-])CC(=O)[O-])N(CC(=O)[O-])CC(=O)[O-])cc1.[Gd+3].[Na+].[Na+] (stereo not shown) [RC1, gadoxetate disodium, reference compound]",–,100 % of RC1,97 % inhibition,–,>250 mM,–,–,100 % of RC1,99 % inhibition,–
